Measured values reported in ChEMBL document CHEMBL5360612, “Macrocyclic Carbon-Linked Pyrazoles As Novel Inhibitors of MCL-1” (ACS Med Chem Lett, 2023).
In brackets after ≈: the same amount, converted by molar mass. Several values for one entry are separate records, joined by “and”; a condition that tells them apart may be missing. Identical values can stand only once.

Tests used:
MOLP-8 = experiment: Induction of apoptosis in human MOLP8 cells using luminescent caspase-3/7 as substrate incubated for 2 hrs by Caspase-Glo 3/7 assay; assay type: functional, cell-based; conditions: MOLP-8, 2 h
[1] = Solubility of compound in pH 7 buffer incubated for 3 days by LC-MS/MS analysis; assay type: physicochemical; conditions: time 3 day
[2] = Solubility of compound in pH 2 buffer incubated for 3 days by LC-MS/MS analysis; assay type: physicochemical; conditions: time 3 day
[3] = biological target: Induced myeloid leukemia cell differentiation protein Mcl-1 (Homo sapiens, UniProt Q07820); experiment: Displacement of Cy5-labeled BIM BH3 peptide (H3N-(C/Cy5Mal)-WIAQELRRIGDEFN-OH) from MCL-1 (unknown origin) assessed as inhibition constant incubated for 60 mins by HTRF assay
[4] = Ratio of AC50 for induction of apoptosis in human MOLP8 cells using luminescent caspase-3/7 as substrate to Ki for displacement of Cy5-labeled BIM BH3 peptide (H3N-(C/Cy5Mal)-WIAQELRRIGDEFN-OH) from MCL-1 (unknown origin) assessed as inhibition constant
Cytochrome P450 3A4 = Cytochrome P450 3A4 (Homo sapiens, UniProt P08684); experiment: Inhibition of recombinant human CYP3A4 by fluorescence microplate reader assay; assay type: ADME
KMS-12-PE [5] = experiment: Induction of apoptosis in human KMS-12-PE cells; assay type: functional, cell-based
Cytochrome P450 2C19 = Cytochrome P450 2C19 (Homo sapiens, UniProt P33261); experiment: Inhibition of recombinant human CYP2C19 by fluorescence microplate reader assay; assay type: ADME
Cytochrome P450 1A2 = biological target: T1, Cytochrome P450 1A2 (Homo sapiens, UniProt P05177); experiment: Inhibition of recombinant human CYP1A2 by fluorescence microplate reader assay; assay type: ADME
T1 sequence (P05177 whole entry): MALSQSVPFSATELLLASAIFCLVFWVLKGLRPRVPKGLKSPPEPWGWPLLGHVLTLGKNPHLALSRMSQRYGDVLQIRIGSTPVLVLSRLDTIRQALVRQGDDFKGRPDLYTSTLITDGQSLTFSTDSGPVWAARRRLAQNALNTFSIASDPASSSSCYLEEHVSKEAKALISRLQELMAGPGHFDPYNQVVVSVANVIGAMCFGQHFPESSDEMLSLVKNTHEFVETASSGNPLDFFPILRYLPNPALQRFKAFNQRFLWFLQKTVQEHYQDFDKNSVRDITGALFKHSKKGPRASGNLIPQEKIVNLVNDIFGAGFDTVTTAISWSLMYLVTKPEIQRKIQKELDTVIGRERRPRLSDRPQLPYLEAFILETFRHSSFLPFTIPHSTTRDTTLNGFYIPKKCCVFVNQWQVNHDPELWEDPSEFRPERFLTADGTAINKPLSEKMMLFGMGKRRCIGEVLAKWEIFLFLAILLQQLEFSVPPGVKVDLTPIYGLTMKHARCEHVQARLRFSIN

[6] = Chromatographic hydrophobicity index, log D of the compound at pH 7.4 by UPLC-TOF analysis; assay type: physicochemical; conditions: buffer
Cytochrome P450 2D6 = Cytochrome P450 2D6 (Homo sapiens, UniProt P10635); experiment: Inhibition of recombinant human CYP2D6 by fluorescence microplate reader assay; assay type: ADME
[7] = Intrinsic clearance in human liver microsomes; assay type: ADME, Microsome; conditions: read-out: CLH
[8] = Cardiotoxicity in human iPSC-CM assessed as calcium transients at 1 uM by CTCM assay; assay type: toxicity, cell-based
Cytochrome P450 2C8 = biological target: T2, Cytochrome P450 2C8 (Homo sapiens, UniProt P10632); experiment: Inhibition of recombinant human CYP2C8 by fluorescence microplate reader assay; assay type: ADME
T2 sequence (P10632 whole entry): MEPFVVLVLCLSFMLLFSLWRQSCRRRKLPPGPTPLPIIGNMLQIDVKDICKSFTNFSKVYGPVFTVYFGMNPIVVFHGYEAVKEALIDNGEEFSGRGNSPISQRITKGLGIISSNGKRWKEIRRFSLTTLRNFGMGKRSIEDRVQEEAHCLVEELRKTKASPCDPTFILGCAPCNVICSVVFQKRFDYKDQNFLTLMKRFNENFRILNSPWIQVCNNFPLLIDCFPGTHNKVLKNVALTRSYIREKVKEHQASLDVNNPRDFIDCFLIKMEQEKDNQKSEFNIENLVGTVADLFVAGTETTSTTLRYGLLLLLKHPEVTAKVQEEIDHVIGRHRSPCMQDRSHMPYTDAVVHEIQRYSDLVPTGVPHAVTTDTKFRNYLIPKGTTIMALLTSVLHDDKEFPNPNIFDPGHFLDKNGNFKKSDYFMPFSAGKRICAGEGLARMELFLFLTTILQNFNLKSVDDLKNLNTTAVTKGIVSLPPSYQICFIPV

[9] = Cardiotoxicity in human iPSC-CM assessed as calcium transients at 10 uM by CTCM assay; assay type: toxicity, cell-based
KMS-12-PE [10] = experiment: Induction of apoptosis in MCL-1 knockout human KMS-12-PE cells overexpressing BFL-1; assay type: functional, cell-based
[11] = Intrinsic clearance in mouse liver microsomes; assay type: ADME, Microsome; conditions: read-out: CLH
[12] = Cardiotoxicity in human iPSC-CM assessed as calcium transients at 0.3 uM by CTCM assay; assay type: toxicity, cell-based
[13] = biological target: Voltage-gated inwardly rectifying potassium channel KCNH2 (Homo sapiens, UniProt Q12809); experiment: […] from human ERG by PatchXpress assay; assay type: toxicity
[14] = Cardiotoxicity in human iPSC-CM assessed as calcium transients at 0.1 uM by CTCM assay; assay type: toxicity, cell-based
[15] = Cardiotoxicity in human iPSC-CM assessed as calcium transients at 3 uM by CTCM assay; assay type: toxicity, cell-based
Cytochrome P450 2C9 = Cytochrome P450 2C9 (Homo sapiens, UniProt P11712); experiment: Inhibition of recombinant human CYP2C9 by fluorescence microplate reader assay; assay type: ADME
Cytochrome P450 2C9, sequence (P11712 whole entry): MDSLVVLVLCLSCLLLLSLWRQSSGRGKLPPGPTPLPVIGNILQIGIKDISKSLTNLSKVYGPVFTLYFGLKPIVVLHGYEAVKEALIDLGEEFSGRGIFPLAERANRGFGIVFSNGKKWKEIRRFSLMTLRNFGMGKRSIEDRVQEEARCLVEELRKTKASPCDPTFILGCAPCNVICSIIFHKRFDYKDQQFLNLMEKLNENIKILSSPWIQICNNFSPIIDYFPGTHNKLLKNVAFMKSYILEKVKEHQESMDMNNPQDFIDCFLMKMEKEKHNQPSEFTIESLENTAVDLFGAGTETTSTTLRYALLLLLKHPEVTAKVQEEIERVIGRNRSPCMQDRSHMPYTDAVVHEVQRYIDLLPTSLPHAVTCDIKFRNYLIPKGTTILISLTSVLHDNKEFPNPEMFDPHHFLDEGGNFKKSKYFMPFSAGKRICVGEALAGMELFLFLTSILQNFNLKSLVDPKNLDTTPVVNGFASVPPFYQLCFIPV

Induced myeloid leukemia cell differentiation protein Mcl-1, sequence (Q07820 whole entry): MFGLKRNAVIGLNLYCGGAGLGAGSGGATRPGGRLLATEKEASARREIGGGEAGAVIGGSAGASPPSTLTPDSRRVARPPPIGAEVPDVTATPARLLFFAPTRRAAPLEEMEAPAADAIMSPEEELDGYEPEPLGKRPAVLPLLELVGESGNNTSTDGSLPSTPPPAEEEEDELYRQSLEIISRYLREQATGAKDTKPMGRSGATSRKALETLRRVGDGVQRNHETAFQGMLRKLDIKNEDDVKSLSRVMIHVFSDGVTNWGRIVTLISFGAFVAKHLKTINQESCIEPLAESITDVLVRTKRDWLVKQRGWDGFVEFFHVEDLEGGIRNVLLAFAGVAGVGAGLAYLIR
Voltage-gated inwardly rectifying potassium channel KCNH2, sequence (Q12809 whole entry): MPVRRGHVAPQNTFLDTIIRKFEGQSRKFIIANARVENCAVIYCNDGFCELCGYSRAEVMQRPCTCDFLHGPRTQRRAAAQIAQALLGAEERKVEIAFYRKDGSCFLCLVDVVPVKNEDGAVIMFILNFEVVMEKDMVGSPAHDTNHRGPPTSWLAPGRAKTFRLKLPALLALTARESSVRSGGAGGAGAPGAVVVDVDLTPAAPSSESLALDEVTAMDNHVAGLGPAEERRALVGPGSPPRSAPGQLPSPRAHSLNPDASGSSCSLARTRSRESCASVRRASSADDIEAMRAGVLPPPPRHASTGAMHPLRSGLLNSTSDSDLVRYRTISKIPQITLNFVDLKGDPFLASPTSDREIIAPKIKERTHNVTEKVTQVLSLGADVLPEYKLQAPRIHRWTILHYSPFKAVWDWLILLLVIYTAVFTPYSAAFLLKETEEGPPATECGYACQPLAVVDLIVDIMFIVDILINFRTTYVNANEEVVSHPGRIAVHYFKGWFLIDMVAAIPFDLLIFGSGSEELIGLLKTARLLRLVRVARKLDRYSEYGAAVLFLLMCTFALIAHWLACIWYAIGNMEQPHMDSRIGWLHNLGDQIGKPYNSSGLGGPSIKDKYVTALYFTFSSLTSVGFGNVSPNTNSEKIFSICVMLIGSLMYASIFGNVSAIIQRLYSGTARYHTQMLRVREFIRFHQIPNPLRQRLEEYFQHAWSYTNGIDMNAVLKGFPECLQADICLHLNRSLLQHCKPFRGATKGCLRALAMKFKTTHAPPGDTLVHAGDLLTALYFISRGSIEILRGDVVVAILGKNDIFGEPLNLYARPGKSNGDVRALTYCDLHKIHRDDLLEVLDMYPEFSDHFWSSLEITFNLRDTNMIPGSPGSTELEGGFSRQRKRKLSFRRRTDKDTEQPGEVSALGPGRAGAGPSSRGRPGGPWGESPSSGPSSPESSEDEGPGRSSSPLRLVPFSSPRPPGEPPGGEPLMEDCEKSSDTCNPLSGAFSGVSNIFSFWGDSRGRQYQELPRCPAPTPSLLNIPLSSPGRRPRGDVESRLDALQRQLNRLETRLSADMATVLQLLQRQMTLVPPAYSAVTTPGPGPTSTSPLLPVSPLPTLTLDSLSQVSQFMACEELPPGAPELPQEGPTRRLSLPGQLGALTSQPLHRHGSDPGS
Cytochrome P450 2C19, sequence (P33261 whole entry): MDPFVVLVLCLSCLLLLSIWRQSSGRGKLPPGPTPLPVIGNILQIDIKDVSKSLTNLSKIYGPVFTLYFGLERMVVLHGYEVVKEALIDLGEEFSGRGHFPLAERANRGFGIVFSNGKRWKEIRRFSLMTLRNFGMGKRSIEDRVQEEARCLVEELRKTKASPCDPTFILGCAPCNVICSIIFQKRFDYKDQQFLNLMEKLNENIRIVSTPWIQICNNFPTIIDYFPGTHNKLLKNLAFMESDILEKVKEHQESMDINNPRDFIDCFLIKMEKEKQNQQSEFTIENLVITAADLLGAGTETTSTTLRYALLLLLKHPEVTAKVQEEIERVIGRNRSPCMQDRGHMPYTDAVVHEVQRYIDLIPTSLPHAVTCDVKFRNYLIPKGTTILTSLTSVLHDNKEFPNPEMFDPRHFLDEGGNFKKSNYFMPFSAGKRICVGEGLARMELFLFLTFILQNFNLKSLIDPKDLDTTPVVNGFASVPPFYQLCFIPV
Cytochrome P450 2D6, sequence (P10635 whole entry): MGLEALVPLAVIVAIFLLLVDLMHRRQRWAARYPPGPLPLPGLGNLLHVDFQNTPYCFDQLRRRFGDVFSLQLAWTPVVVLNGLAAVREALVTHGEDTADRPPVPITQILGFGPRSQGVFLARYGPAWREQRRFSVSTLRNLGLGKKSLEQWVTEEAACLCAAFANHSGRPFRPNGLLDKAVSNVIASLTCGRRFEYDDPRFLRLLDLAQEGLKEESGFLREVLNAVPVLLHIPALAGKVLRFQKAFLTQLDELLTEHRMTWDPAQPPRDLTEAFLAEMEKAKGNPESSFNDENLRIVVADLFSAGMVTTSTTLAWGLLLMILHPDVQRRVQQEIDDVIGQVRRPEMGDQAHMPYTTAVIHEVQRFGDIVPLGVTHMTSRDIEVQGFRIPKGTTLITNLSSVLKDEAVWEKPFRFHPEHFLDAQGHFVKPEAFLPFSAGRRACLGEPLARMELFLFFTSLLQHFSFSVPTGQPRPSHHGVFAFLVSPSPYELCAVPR
Cytochrome P450 3A4, sequence (P08684 whole entry): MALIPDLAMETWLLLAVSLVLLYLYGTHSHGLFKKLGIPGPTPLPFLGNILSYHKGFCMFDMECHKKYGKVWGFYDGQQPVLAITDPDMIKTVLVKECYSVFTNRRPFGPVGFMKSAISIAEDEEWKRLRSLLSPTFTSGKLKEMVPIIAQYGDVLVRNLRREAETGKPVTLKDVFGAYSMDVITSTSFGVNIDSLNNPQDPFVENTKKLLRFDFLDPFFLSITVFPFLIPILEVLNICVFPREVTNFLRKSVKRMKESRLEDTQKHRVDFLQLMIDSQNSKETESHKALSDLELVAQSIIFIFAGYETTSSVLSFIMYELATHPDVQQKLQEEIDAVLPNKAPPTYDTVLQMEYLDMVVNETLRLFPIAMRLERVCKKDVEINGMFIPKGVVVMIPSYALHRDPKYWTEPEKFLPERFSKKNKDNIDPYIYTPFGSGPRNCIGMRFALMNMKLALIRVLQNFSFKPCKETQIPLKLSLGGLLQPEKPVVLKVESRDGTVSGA

| SMILES | AC50 (MOLP-8) | solubility at 72 h [1] | solubility at 72 h [2] | Ki [3] | Ratio [4] | other results |
| --- | --- | --- | --- | --- | --- | --- |
| COCCOCCn1nc(C)c2c1CSCc1cc(n(C)n1)CCc1cc(c3ccc(F)cc3c1)OCCCn1c(C(=O)O)c(C)c3c-2c(Cl)ccc31 | 12 nM | – | – | – | – | – |
| Cc1nn(C)c2c1CSCc1cc(n(C)n1)CCc1cc(c3ccccc3c1)OCCCc1c(C(=O)[O-])n(C)c3c-2c(Cl)ccc13.[Na+] | 45 nM | 210 µM | < 0.04 µM | 0.032 nM | 1406 | – |
| COCCOCCc1nn(C)c2c1CSCc1cc(n(C)n1)CCc1cc(c3ccc(F)cc3c1)OCCCc1c(C(=O)O)n(C)c3c-2c(Cl)ccc13 | 16 nM | 460 µM (≈ 350 µg/mL) | < 0.29 µM | 0.013 nM | 1230 | – |
| COCCOCc1nn(C)c2c1CSCc1cc(n(C)n1)CCc1cc(c3ccc(F)cc3c1)OCCCc1c(C(=O)O)n(C)c3c-2c(Cl)ccc13 | 14 nM | 580 µM (≈ 433 µg/mL) | < 0.02 µM | 0.018 nM | 777 | IC50 (Cytochrome P450 3A4): > 20 µM; AC50 (KMS-12-PE [5]): 111 nM; IC50 (Cytochrome P450 2C19): > 20 µM; IC50 (Cytochrome P450 1A2): > 20 µM; chromatographic logD [6]: 2.49; IC50 (Cytochrome P450 2D6): > 20 µM; microsomal CLint [7]: 48 µL/min/mg; Activity [8]: Non-Toxic; IC50 (Cytochrome P450 2C8): 9.6 µM; Activity [9]: Non-Toxic; AC50 (KMS-12-PE [10]): > 30 µM; microsomal CLint [11]: 157 µL/min/mg; Activity [12]: Non-Toxic; IC50 [13]: > 30 µM; Activity [14]: Non-Toxic; Activity [15]: Non-Toxic; IC50 (Cytochrome P450 2C9): 19 µM |
| Cn1nc2cc1CCc1cc(c3ccc(F)cc3c1)OCCCc1c(C(=O)O)n(CCN3CCOCC3)c3c(c(Cl)ccc13)-c1c(cnn1C)CSC2 | 76 nM | 550 µM (≈ 417 µg/mL) | 580 µM (≈ 439 µg/mL) | 0.02 nM | 3800 | IC50 (Cytochrome P450 3A4): 9.5 µM; AC50 (KMS-12-PE [5]): 407 nM; IC50 (Cytochrome P450 2C19): > 20 µM; IC50 (Cytochrome P450 1A2): > 20 µM; chromatographic logD [6]: 2.53; IC50 (Cytochrome P450 2D6): 10.5 µM; microsomal CLint [7]: 43 µL/min/mg; Activity [8]: Non-Toxic; IC50 (Cytochrome P450 2C8): 5.6 µM; Activity [9]: Non-Toxic; AC50 (KMS-12-PE [10]): > 30 µM; microsomal CLint [11]: 24 µL/min/mg; Activity [12]: Non-Toxic; IC50 [13]: > 30 µM; Activity [14]: Non-Toxic; Activity [15]: Non-Toxic; IC50 (Cytochrome P450 2C9): > 20 µM |
| Cn1nc2cc1CCc1cc(c3ccc(F)cc3c1)OCCCc1c(C(=O)O)[nH]c3c(c(Cl)ccc13)-c1c(cnn1C)CSC2 | 202 nM | – | – | 0.047 nM | 4300 | – |
| Cn1nc2cc1CSc1cc(c3ccccc3c1)OCCCc1c(C(=O)O)n(C)c3c(c(Cl)ccc13)-c1c(cnn1C)CSC2 | – | < 0.49 µM | < 0.55 µM | – | 738 and >900 | – |
| Cc1nn(C)c2c1CSCc1cc(n(C)n1)CCc1cc(c3ccc(F)cc3c1)OCCCc1c(C(=O)[O-])n(C)c3c-2c(Cl)ccc13.[Na+] | 10 nM | 550 µM | < 0.03 µM | 0.041 nM | 243 | – |
| COCCOCc1nn(C)c2c1CSCc1cc(n(C)n1)CCc1cc(c3ccccc3c1)OCCCc1c(C(=O)O)n(C)c3c-2c(Cl)ccc13 | 43 nM | 590 µM (≈ 430 µg/mL) | < 0.06 µM | 0.023 nM | 1870 | – |
| COCCOCCn1c(C(=O)O)c2c3ccc(Cl)c(c31)-c1c(cnn1C)CSCc1cc(n(C)n1)CCc1cc(c3ccc(F)cc3c1)OCCC2 | 52 nM | 520 µM (≈ 388 µg/mL) | < 0.23 µM | 0.02 nM | 2600 | – |
| Cc1nn(C)c2c1CSCc1cc(n(C)n1)CSc1cc(c3ccccc3c1)OCCCc1c(C(=O)O)n(C)c3c-2c(Cl)ccc13 | 54 nM | 9.7 µM (≈ 6.52 µg/mL) | < 0.27 µM | 0.04 nM | 1350 | – |
| CN(C)CCn1c(C(=O)O)c2c3ccc(Cl)c(c31)-c1c(cnn1C)CSCc1cc(n(C)n1)CCc1cc(c3ccc(F)cc3c1)OCCC2 | 120 nM | – | – | 0.034 nM | 3530 | – |
| COCCn1c(C(=O)O)c2c3ccc(Cl)c(c31)-c1c(cnn1C)CSCc1cc(n(C)n1)CCc1cc(c3ccc(F)cc3c1)OCCC2 | 43 nM | 10.4 µM (≈ 7.3 µg/mL) | < 0.02 µM | 0.022 nM | 1954 | – |
